In patent US10800732B2, “Substituted malonamides and their use as antibacterial drugs” (National Taiwan University, priority 2015, dated 2020):
In brackets after ≈: the same amount, converted by molar mass. Read-outs that look alike come from different tables or passages of the source.

What was measured:
S. aureus NCTC 8325 [1] = assay: MIC, S. aureus NCTC 8325 (CLSI broth microdilution / agar dilution); format: cell-based, Staphylococcus aureus
MRSA ATCC 49476 = assay: MIC, MRSA ATCC 49476; format: cell-based, methicillin-resistant Staphylococcus aureus; conditions: Staphylococcus aureus; MRSA ATCC 49476; read-out: MIC
S. aureus NCTC 8325 [2] = format: cell-based, Staphylococcus aureus; conditions: for time to over 64-fold MIC change: sub-inhibitory concentration, serial passage; for fold MIC change (resistance): sub-inhibitory concentration for 30 consecutive days
MRSA ATCC 33592 = assay: MIC, MRSA ATCC 33592; format: cell-based, methicillin-resistant Staphylococcus aureus; conditions: Staphylococcus aureus, MRSA ATCC 33592, read-out: MIC
[3] = system: S. epidermidis ATCC 35984; assay: MIC, S. epidermidis ATCC 35984; format: cell-based; conditions: Staphylococcus epidermidis, ATCC35984; S. epidermidis ATCC 35984; read-out: MIC
MRSA SCCmec VT = assay: MIC, MRSA SCCmec VT; format: cell-based, methicillin-resistant Staphylococcus aureus; conditions: Staphylococcus aureus; MRSA SCCmec VT; read-out: MIC
[4] = system: S. epidermidis ATCC 12228; assay: MIC, S. epidermidis ATCC 12228; format: cell-based; conditions: Staphylococcus epidermidis, ATCC12228; S. epidermidis ATCC 12228; read-out: MIC
K-562 = assay: Antiproliferative activity, K-562; format: cell-based, human; conditions: K-562, antiproliferative
Procedure: (§1) In addition to the antibacterial activities, the cytotoxic effects of these malonate derivatives on human cancer cell lines were also assessed.

HEK-293 = assay: Antiproliferative activity, HEK-293; format: cell-based, human; conditions: HEK-293, antiproliferative
Procedure: as §1

[5] = Staphylococcus aureus, NCTC8325, S. aureus NCTC 8325, read-out: MIC
[6] = Staphylococcus aureus, NCTC8325
[7] = Staphylococcus aureus, MSSA NCTC 8325, Table 6, read-out: MIC

Molecule	MIC (S. aureus NCTC 8325 [1]; [7])	MIC (MRSA ATCC 33592; Table 6)	further results
CC1(C)S[C@@H]2[C@H](NC(=O)[C@H](N)c3ccccc3)C(=O)N2[C@H]1C(=O)O [Ampicillin]	–	–	MIC (S. aureus NCTC 8325 [1]; [5]): 0.25 mg/L (≈ 0.715 µM); MIC (MRSA ATCC 49476): > 64 mg/L; time to over 64-fold MIC change (S. aureus NCTC 8325 [2]): ≤ 27 days; MIC (MRSA ATCC 33592): > 64 mg/L; MIC [3]: > 32 mg/L; MIC (MRSA SCCmec VT): 64 mg/L (≈ 183 µM); MIC [4]: 32 mg/L (≈ 91.6 µM)
O=C(N[C@H](CO)[C@H](O)c1ccc([N+](=O)[O-])cc1)C(Cl)Cl [Chloramphenicol]	–	–	MIC (S. aureus NCTC 8325 [1]; [5]): 4 mg/L (≈ 12.4 µM); MIC (MRSA ATCC 49476): 8 mg/L (≈ 24.8 µM); fold MIC change (resistance) (S. aureus NCTC 8325 [2]): no resistance; MIC (MRSA ATCC 33592): 32 mg/L (≈ 99 µM); MIC (MRSA SCCmec VT): 64 mg/L (≈ 198 µM); MIC [4]: 2 mg/L (≈ 6.19 µM)
CC[C@H]1OC(=O)[C@H](C)[C@@H](O[C@H]2C[C@@](C)(OC)[C@@H](O)[C@H](C)O2)[C@H](C)[C@@H](O[C@@H]2O[C@H](C)C[C@H](N(C)C)[C@H]2O)[C@](C)(O)C[C@@H](C)C(=O)[C@H](C)[C@@H](O)[C@]1(C)O [Erythromycin]	–	–	MIC (S. aureus NCTC 8325 [1]; [5]): 0.5 mg/L (≈ 0.681 µM); MIC (MRSA ATCC 49476): > 64 mg/L; time to over 64-fold MIC change (S. aureus NCTC 8325 [2]): ≤ 17 days; MIC (MRSA ATCC 33592): > 64 mg/L; MIC [3]: 4 mg/L (≈ 5.45 µM); MIC (MRSA SCCmec VT): > 64 mg/L; MIC [4]: 4 mg/L (≈ 5.45 µM)
CC1COc2c(N3CCN(C)CC3)c(F)cc3c(=O)c(C(=O)O)cn1c23 (centres unmarked) [Ofloxacin]	–	–	MIC (S. aureus NCTC 8325 [1]; [6]): 0.125 mg/L (≈ 0.346 µM); MIC (MRSA ATCC 49476): 0.5 mg/L (≈ 1.38 µM); fold MIC change (resistance) (S. aureus NCTC 8325 [2]): 8 fold; MIC (MRSA ATCC 33592): 0.25 mg/L (≈ 0.692 µM); MIC (MRSA SCCmec VT): 0.25 mg/L (≈ 0.692 µM); MIC [4]: 0.25 mg/L (≈ 0.692 µM)
CO[C@H]1/C=C/O[C@@]2(C)Oc3c(C)c(O)c4c(O)c(c(/C=N/N5CCN(C)CC5)c(O)c4c3C2=O)NC(=O)/C(C)=C\C=C\[C@H](C)[C@H](O)[C@@H](C)[C@@H](O)[C@@H](C)[C@H](OC(C)=O)[C@@H]1C [Rifampicin]	–	–	MIC (S. aureus NCTC 8325 [1]; [6]): 0.125 mg/L (≈ 0.152 µM); MIC (MRSA ATCC 49476): 0.25 mg/L (≈ 0.304 µM); time to over 64-fold MIC change (S. aureus NCTC 8325 [2]): ≤ 6 days; MIC (MRSA ATCC 33592): > 64 mg/L; MIC (MRSA SCCmec VT): 0.5 mg/L (≈ 0.608 µM); MIC [4]: < 0.004 mg/L
CCOC(=O)C1=C(N)Oc2ccc(Cl)cc2C1C(C#N)C(=O)OCC (centres unmarked) [SC79]	–	–	MIC (S. aureus NCTC 8325 [1]; S. aureus NCTC 8325, Table 2): 0.5 mg/L (≈ 1.37 µM); IC50 (K-562): 1.78 mg/L (≈ 4.88 µM); IC50 (HEK-293): 2.22 mg/L (≈ 6.09 µM)
O=C(Nc1ccc(Cl)c(C(F)(F)F)c1)C1(C(=O)Nc2ccc(Cl)c(C(F)(F)F)c2)CC1 [SC5020, N,N′-bis(4-chloro-3-(trifluoromethyl)phenyl)cyclopropane-1,1-dicarboxamide]	> 8 mg/L	–	–
C#Cc1cccc(NC(=O)C2(C(=O)Nc3cccc(C#C)c3)CC2)c1 [SC5021, N,N′-bis(3-ethynylphenyl)cyclopropane-1,1-dicarboxamide]	8 mg/L (≈ 24.4 µM)	–	–
O=C(Nc1ccccc1)C(CCCl)C(=O)Nc1ccccc1 [SC5022, 2-(2-chloroethyl)-N^1,N^3-diphenylmalonamide]	> 8 mg/L	–	–
O=C(Nc1cccc(C(F)(F)F)c1)C(CCCl)C(=O)Nc1cccc(C(F)(F)F)c1 [SC5023, 2-(2-chloroethyl)-N^1,N^3-bis(3-(trifluoromethyl)phenyl)malonamide]	2 mg/L (≈ 4.42 µM)	1 mg/L (≈ 2.21 µM)	–
O=C(Nc1ccc(OC(F)(F)F)cc1)C(CCCl)C(=O)Nc1ccc(OC(F)(F)F)cc1 [SC5024, 2-(2-chloroethyl)-N^1,N^3-bis(4-(trifluoromethoxy)phenyl)malonamide]	1 mg/L (≈ 2.06 µM)	1 mg/L (≈ 2.06 µM)	–
O=C(Nc1cc(Cl)cc(Cl)c1)C(CCCl)C(=O)Nc1cc(Cl)cc(Cl)c1 [SC5025, 2-(2-chloroethyl)-N^1,N^3-bis(3,5-dichlorophenyl)malonamide]	0.25 mg/L (≈ 0.55 µM)	0.25 mg/L (≈ 0.55 µM)	–
C#Cc1cccc(NC(=O)C(CCCl)C(=O)Nc2cccc(C#C)c2)c1 [SC5026, 2-(2-chloroethyl)-N^1,N^3-bis(3-ethynylphenyl)malonamide]	> 8 mg/L	–	–
O=C(Nc1cccc(Cl)c1)C(CCCl)C(=O)Nc1cccc(Cl)c1 [SC5027, 2-(2-chloroethyl)-N^1,N^3-bis(3-chlorophenyl)malonamide]	> 8 mg/L	–	–
O=C(Nc1cccc([N+](=O)[O-])c1)C(CCCl)C(=O)Nc1cccc([N+](=O)[O-])c1 [SC5028, 2-(2-chloroethyl)-N^1,N^3-bis(3-nitrophenyl)malonamide]	> 64 mg/L	–	–
Cc1ccc(NC(=O)C(CCCl)C(=O)Nc2ccc(C)c(O)c2)cc1O [SC5029, 2-(2-chloroethyl)-N^1,N^3-bis(3-hydroxy-4-methylphenyl)malonamide]	8 mg/L (≈ 21.2 µM)	–	–
O=C(Nc1ccc(Cl)c(O)c1)C(CCCl)C(=O)Nc1ccc(Cl)c(O)c1 [SC5030, N^1,N^3-bis(4-chloro-3-hydroxyphenyl)-2-(2-chloroethyl)malonamide]	> 16 mg/L	–	–
O=C(Nc1cccc(O)c1)C(CCCl)C(=O)Nc1cccc(O)c1 [SC5031, 2-(2-chloroethyl)-N^1,N^3-bis(3-hydroxyphenyl)malonamide]	> 64 mg/L	–	–

Molecule	MIC (S. aureus NCTC 8325 [1]; [7])	MIC (MRSA ATCC 33592; Table 6)	further results
O=C(Nc1cc(C(F)(F)F)cc(C(F)(F)F)c1)C(CCCl)C(=O)Nc1cc(C(F)(F)F)cc(C(F)(F)F)c1 [SC5032, N,N^3-bis(3,5-bis(trifluoromethyl)phenyl)-2-(2-chloroethyl)malonamide]	32 mg/L (≈ 54.4 µM)	–	–
O=C(Nc1ccc([N+](=O)[O-])c(C(F)(F)F)c1)C(CCCl)C(=O)Nc1ccc([N+](=O)[O-])c(C(F)(F)F)c1 [SC5034, 2-(2-chloroethyl)-N^1,N^3-bis(4-nitro-3-(trifluoromethyl)phenyl)malonamide]	1 mg/L (≈ 1.84 µM)	–	–
O=C(Nc1cc(Cl)cc(Cl)c1)C(CCCl)C(=O)Nc1cc(C(F)(F)F)cc(C(F)(F)F)c1 (centres unmarked) [SC5036, N^1-(3,5-bis(trifluoromethyl)phenyl)-2-(2-chloroethyl)-N^3-(3,5-dichlorophenyl) malonamide]	0.25 mg/L (≈ 0.479 µM)	0.5 mg/L (≈ 0.958 µM)	–
C=CCC(C(=O)Nc1ccc(Cl)c(C(F)(F)F)c1)C(=O)Nc1ccc(Cl)c(C(F)(F)F)c1 [SC5037, 2-allyl-N^1,N^3-bis(4-chloro-3-(trifluoromethyl)phenyl)malonamide]	8 mg/L (≈ 16 µM)	> 32 mg/L	–
C#Cc1cccc(NC(=O)C(CC=C)C(=O)Nc2cccc(C#C)c2)c1 [SC5038, 2-allyl-N^1,N^3-bis(3-ethynylphenyl)malonamide]	> 32 mg/L	> 32 mg/L	–
C=CCC(C(=O)Nc1cccc(CC)c1)C(=O)Nc1cccc(CC)c1 [SC5039, 2-allyl-N^1,N^3-bis(3-ethylphenyl)malonamide]	> 32 mg/L	> 32 mg/L	–
C=CCC(C(=O)Nc1cc(Cl)cc(Cl)c1)C(=O)Nc1cc(Cl)cc(Cl)c1 [SC5040, 2-allyl-N^1,N^3-bis(3,5-dichlorophenyl)malonamide]	> 32 mg/L	> 32 mg/L	–
O=C(Nc1cc(Cl)cc(Cl)c1)C(CCCl)C(=O)Nc1ccc([N+](=O)[O-])c(C(F)(F)F)c1 (centres unmarked) [SC5041, 2-(2-chloroethyl)-N^1-(3,5-dichlorophenyl)-N^3-(4-nitro-3-(trifluoromethyl)phenyl)malonamide]	0.5 mg/L (≈ 1 µM)	0.5 mg/L (≈ 1 µM)	–
CCCNC(=O)C(CCCl)C(=O)NCCC [SC5046, 2-(2-chloroethyl)-N1,N3-dipropylmalonamide]	> 64 mg/L	> 64 mg/L	–
CCCCNC(=O)C(CCCl)C(=O)NCCCC [SC5047, N1,N3-dibutyl-2-(2-chloroethyl)malonamide]	> 64 mg/L	> 64 mg/L	–
O=C(NC1CCCCC1)C(CCCl)C(=O)NC1CCCCC1 [SC5048, 2-(2-chloroethyl)-N1,N3-dicyclohexylmalonamide]	> 64 mg/L	> 64 mg/L	–
CCCNC(=O)C(CCCl)C(=O)Nc1ccc(Cl)c(C(F)(F)F)c1 (centres unmarked) [SC5049, N1-(4-chloro-3-(trifluoromethyl)phenyl)-2-(2-chloroethyl)-N3-propylmalonamide]	> 64 mg/L	> 64 mg/L	–
C=CCNC(=O)C(CCCl)C(=O)Nc1ccc(Cl)c(C(F)(F)F)c1 (centres unmarked) [SC5050, N1-allyl-N3-(4-chloro-3-(trifluoromethyl)phenyl)-2-(2-chloroethyl)malonamide]	> 64 mg/L	> 64 mg/L	–
C=CCNC(=O)C(CCCl)C(=O)NCC=C [SC5051, N1,N3-diallyl-2-(2-chloroethyl)malonamide]	> 64 mg/L	> 64 mg/L	–
CCCCNC(=O)C(CCCl)C(=O)Nc1ccc(Cl)c(C(F)(F)F)c1 (centres unmarked) [SC5052, N1-butyl-N3-(4-chloro-3-(trifluoromethyl)phenyl)-2-(2-chloroethyl)malonamide]	> 64 mg/L	> 64 mg/L	–
O=C(Nc1ccc(Cl)c(C(F)(F)F)c1)C(CCCl)C(=O)NC1CCCCC1 (centres unmarked) [SC5053, N1-(4-chloro-3-(trifluoromethyl)phenyl)-2-(2-chloroethyl)-N3-cyclohexylmalonamide]	> 64 mg/L	> 64 mg/L	–
CN(C)[C@@H]1C(O)=C(C(N)=O)C(=O)[C@@]2(O)C(O)=C3C(=O)c4c(O)cccc4[C@@](C)(O)[C@H]3C[C@@H]12 [Tetracycline]	–	–	MIC (MRSA ATCC 49476): > 64 mg/L; MIC (MRSA ATCC 33592): > 64 mg/L; MIC [3]: 0.25 mg/L (≈ 0.563 µM); MIC (MRSA SCCmec VT): 32 mg/L (≈ 72 µM); MIC [4]: 8 mg/L (≈ 18 µM)
N^1,N^3-bis(4-pentafluorosulfurphenyl)-2-(2-chloroethyl)malonamide [SC5033]	–	–	MIC (S. aureus NCTC 8325 [1]; MSSA NCTC 8325, Table 6): 32 mg/L
